Measured values from patent US9388123B2, “LSD1-selective inhibitor having lysine structure” (KYOTO UNIVERSITY, priority 2012, dated 2016).
Counter-ions that a name gives are not always drawn.

Experiments:
[1] = target: T1, monoamine oxidase A (MAO-A) (Homo sapiens, UniProt P21397); assay: Monoamine oxidase inhibition test (MAO-Glo assay kit); format: biochemical; conditions: room temperature, 1 hour
T1 construct: purchased Sigma-Aldrich
T1 sequence (P21397 1-527): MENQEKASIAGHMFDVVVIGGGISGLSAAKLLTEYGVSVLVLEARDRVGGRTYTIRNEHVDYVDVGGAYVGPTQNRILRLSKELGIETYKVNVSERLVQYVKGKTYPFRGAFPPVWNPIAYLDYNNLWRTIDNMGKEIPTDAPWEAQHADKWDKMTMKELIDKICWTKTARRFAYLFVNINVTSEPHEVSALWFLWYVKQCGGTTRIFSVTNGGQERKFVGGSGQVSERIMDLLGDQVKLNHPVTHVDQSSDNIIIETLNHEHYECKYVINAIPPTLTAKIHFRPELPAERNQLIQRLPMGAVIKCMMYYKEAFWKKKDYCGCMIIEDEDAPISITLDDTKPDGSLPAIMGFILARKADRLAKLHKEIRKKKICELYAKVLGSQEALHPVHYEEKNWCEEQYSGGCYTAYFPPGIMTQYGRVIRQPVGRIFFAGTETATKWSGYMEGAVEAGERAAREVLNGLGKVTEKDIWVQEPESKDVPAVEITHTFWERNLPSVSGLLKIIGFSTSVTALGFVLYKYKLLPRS
Method: (§6) To the reaction liquid was added 50 μL of a luciferin detection reagent, and the mixture was subjected to a reaction at room temperature for 20 minutes.

[2] = target: T2, monoamine oxidase B (MAO-B) (Homo sapiens, UniProt P27338); assay: as above; format: biochemical; conditions: room temperature, 1 hour
T2 construct: purchased Sigma-Aldrich
T2 sequence (P27338 1-520): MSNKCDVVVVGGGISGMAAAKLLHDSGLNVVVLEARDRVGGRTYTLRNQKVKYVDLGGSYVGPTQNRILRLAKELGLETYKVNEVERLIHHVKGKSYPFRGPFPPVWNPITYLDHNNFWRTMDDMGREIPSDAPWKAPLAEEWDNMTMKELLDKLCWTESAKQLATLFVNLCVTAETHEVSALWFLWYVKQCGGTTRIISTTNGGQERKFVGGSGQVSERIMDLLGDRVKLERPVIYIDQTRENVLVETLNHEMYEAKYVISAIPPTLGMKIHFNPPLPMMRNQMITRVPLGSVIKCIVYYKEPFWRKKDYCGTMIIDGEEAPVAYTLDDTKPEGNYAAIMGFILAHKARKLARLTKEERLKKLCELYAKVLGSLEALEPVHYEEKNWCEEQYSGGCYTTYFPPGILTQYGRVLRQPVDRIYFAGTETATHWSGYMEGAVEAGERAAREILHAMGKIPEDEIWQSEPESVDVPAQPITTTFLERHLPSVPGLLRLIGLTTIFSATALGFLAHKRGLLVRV
Method: as §6

HeLa cells = assay: Cancer cell growth inhibition evaluation (MTT assay); format: cell-based; conditions: Homo sapiens, 48 h, read-out: GI50 (μM) HeLa
Method: (§1) Evaluation was performed by measuring the inhibitory activities of a compound against the growth of a human cervical cancer-derived cell line, HeLa cells, and a human neuroblastoma cell line, SH-SY5Y cells. Details thereof are shown below. […] This assay involves, as a principle thereof, measuring an absorbance at the time of color development through a reaction of NADH, which is contained in the mitochondria of viable cells, and MTT to measure the amount of NADH. The assay was performed by the following procedure. […] After the culture, a compound was added. Then, the cells were cultured for an additional 48 hours, and then 5 mg/ml MTT liquid was added at 10 μl per well. The cells were cultured for an additional 3 hours in a CO2 incubator. A solubilization solution (0.04 mol/l hydrochloric acid-isopropanol) was added at 100 μl per well and the mixture was vigorously vortexed. After that, an absorbance at 560 nm was measured with Fusion-aFP (manufactured by PerkinElmer) and the amount of viable cells was determined.

SH-SY5Y cells = assay: as above; format: cell-based; conditions: Homo sapiens, read-out: GI50 (μM) SH-SY5Y
Method: as §1

HL60 = assay: Leukemia cell growth inhibition evaluation (WST-8); format: cell-based; conditions: Homo sapiens, HL-60; day 3 (72-hour culture); read-out: Human leukemia cell line GI50 (μM) HL60
Excerpt: (§2) HL60, THP-1, K562, U937, KGla, HEL, and MDS-L were used as human leukemia cells. The cell lines are cell lines established from various subtypes such as acute myeloid leukemia, acute promyelocytic leukemia, acute monocytic leukemia, acute erythroid leukemia, and myelodysplastic syndromes, which progress to leukemia. Cells obtained by introducing leukemia fusion genes MLL/AF9, MLL/SEPT6, and MLL/ENL into the bone marrow of normal mice with a retrovirus so as to develop leukemia were used as murine leukemia cell lines.
(§3) This assay method involves, as a principle thereof, measuring an absorbance (a peak at from 450 nm to 490 nm) at the time of color development through a reaction of NADH, which is contained in the mitochondria of viable cells, and WST-8 to measure the amount of NADH. Specifically, the assay was performed by the following procedure.
(§4) The cells were plated at 50 μl, i.e., 5,000 cells per well in a 96-well microtiter plate. Next, a test compound dissolved in DMSO was mixed at various concentrations into the same medium, and 50 μl of each of the mixtures was added to each well. A medium was prepared so that the final concentration of the test compound was from 0 μM to 50 μM and so that the addition amount of DMSO was the same, and the cells were cultured in a CO2 incubator. On day 0 before the addition and on day 1, day 2, and day 3 after the addition, WST-8 reagent was added at 20 μl per well, and the cells were cultured for 1 hour in a CO2 incubator. After that, measurement was performed with ARVO X3 (manufactured by PerkinElmer).
(§5) Specifically, an absorbance at 450 nm was measured, an absorbance at 595 nm was measured in the same well, and the absorbance at 595 nm was subtracted from the absorbance at 450 nm to perform background correction for the well itself. Further, a well containing only a medium free of cells was subjected to the same measurement. A value in this case was also subtracted. Thus, the amount of viable cells was represented as a numerical value with correction of the influence of a medicament or a medium as well. Under a condition not containing the test compound (addition of only dimethyl sulfoxide), an exponential increase in number of viable cells on day 1, day 2, and day 3 in the stated order was confirmed.

K562 = assay: Leukemia cell growth inhibition evaluation (WST-8); format: cell-based; conditions: Homo sapiens, day 3 (72-hour culture), read-out: Human leukemia cell line GI50 (μM) K562
Excerpt: as §2, §3, §4, §5

KG1a = assay: Leukemia cell growth inhibition evaluation (WST-8); format: cell-based; conditions: Homo sapiens, KG-1a; day 3 (72-hour culture); read-out: Human leukemia cell line GI50 (μM) KG1a
Excerpt: as §2, §3, §4, §5

M7 = assay: Leukemia cell growth inhibition evaluation (WST-8); format: cell-based; conditions: Homo sapiens; day 3 (72-hour culture); read-out: Human leukemia cell line GI50 (μM) M7
Excerpt: as §2, §3, §4, §5

[3] = test system: MLL/AF9 leukemia cell line; assay: Leukemia cell growth inhibition evaluation (WST-8); format: cell-based; conditions: Mus musculus, day 3 (72-hour culture), read-out: Mouse MLL-fusion leukemia cell line GI50 (μM) MLL/AF9
Excerpt: as §2, §3, §4, §5

[4] = test system: MLL/ENL leukemia cell line; assay: Leukemia cell growth inhibition evaluation (WST-8); format: cell-based; conditions: Mus musculus; day 3 (72-hour culture); read-out: Mouse MLL-fusion leukemia cell line GI50 (μM) MLL/ENL
Excerpt: as §2, §3, §4, §5

THP1 = assay: Leukemia cell growth inhibition evaluation (WST-8); format: cell-based; conditions: Homo sapiens, THP-1; day 3 (72-hour culture); read-out: Human leukemia cell line GI50 (μM) THP1
Excerpt: as §2, §3, §4, §5

U937 = assay: Leukemia cell growth inhibition evaluation (WST-8); format: cell-based; conditions: Homo sapiens, U-937; day 3 (72-hour culture); read-out: Human leukemia cell line GI50 (μM) U937
Excerpt: as §2, §3, §4, §5

[5] = test system: human leukemia cell lines; assay: Leukemia cell growth inhibition evaluation, summary in words; format: cell-based; conditions: Table 5
Excerpt: as §2, §3, §4, §5

[6] = test system: murine leukemia cell lines; assay: as above; format: cell-based; conditions: Table 6
Excerpt: as §2, §3, §4, §5

HEL = assay: Leukemia cell growth inhibition evaluation (WST-8); format: cell-based; conditions: Homo sapiens, day 3 (72-hour culture), read-out: Human leukemia cell line GI50 (μM) HEL
Excerpt: as §2, §3, §4, §5

MDS-L = assay: Leukemia cell growth inhibition evaluation (WST-8); format: cell-based; conditions: Homo sapiens; day 3 (72-hour culture); read-out: Human leukemia cell line GI50 (μM) MDS-L
Excerpt: as §2, §3, §4, §5

[7] = test system: bone marrow cells of normal mice; assay: Normal cell growth inhibition evaluation (colony forming ability in methylcellulose semi-solid medium); format: cell-based; conditions: at 10 μM; 10 days culture; FIG. 1
Excerpt: In general, a semi-solid medium obtained by adding a cytokine involved in differentiation induction to a methylcellulose medium is used to evaluate a colony forming ability. Some of the bone marrow cells contain hematopoietic stem cells and precursor cells, which are sources of hematopoietic cells, and these cells can create a mass (called a colony) formed of several tens, several hundreds, and in some cases, several thousands of cells from a single cell on a semi-solid medium. The colony forming ability of the bone marrow cells may be evaluated by counting the number of the colonies. The colony forming ability in the semi-solid medium well reflects an actual supply ability and construction ability from the hematopoietic stem cells and precursor cells to the hematopoietic cells in vivo.
To 3 ml of MethoCult M3434 (methylcellulose-based semi-solid medium; StemCell Technologies; containing interleukin 3(IL-3), interleukin 6 (IL-6), erythropoietin (EPO), and stem cell factor (SCF)) were added 600,000 bone marrow cells of normal mice (suspended in 300 μl of IMDM medium), and the mixture was stirred well and plated at 1.1 ml per 3.5-cm culture dish. The cells were cultured under the conditions of 5% CO2 and 37° C. for 10 days in an incubator. A mass in which the number of cells was 50 or more was defined as a colony, and the number of colonies formed on each dish was counted.

| SMILES | melting point | IC50 [1] | IC50 [2] | GI50 (HeLa cells) | GI50 (SH-SY5Y cells) | GI50 (HL60) | GI50 (K562) | GI50 (KG1a) | GI50 (M7) | GI50 [3] | GI50 [4] | GI50 (THP1) | GI50 (U937) | growth inhibitory / suppressing effect on the human leukemia cell lines (in words) [5] | growth inhibitory / suppressing effect on the murine leukemia cell lines (in words) [6] | GI50 (HEL) | GI50 (MDS-L) | colony forming ability [7] |
| --- | --- | --- | --- | --- | --- | --- | --- | --- | --- | --- | --- | --- | --- | --- | --- | --- | --- | --- |
| O=C(N[C@@H](CCCCNC1CC1c1ccccc1)C(=O)NCc1cccc(C(F)(F)F)c1)c1ccc(-c2ccccc2)cc1 (stereo partly drawn) (as salt: hydrochloride) [Example 19, 2-[N-(4-Phenylbenzenecarbonyl)]amino-6-(trans-2-phenylcyclopropan-1-amino)-N-(3-trifluoromethylbenzyl)hexanamide Hydrochloride] | 129 to 130 °C | – | – | – | – | – | – | – | – | – | – | – | – | – | – | – | – | – |
| NC1CC1c1cccc(OCC[C@H](NC(=O)c2ccccc2)C(=O)NCc2ccccc2)c1 (stereo partly drawn) [Comp. Ex. 2, (S)-trans-N-3-[3-(2-aminocyclopropyl)phenoxy]-1-benzylcarbamoylpropylbenzamide hydrochloride, reference compound] | – | 129 µM | 326 µM | 13 µM | 27 µM | 6.1 to 33 µM | 25 to 50 µM | > 50 µM | > 50 µM | < 3.1 µM | < 3.1 µM | > 50 µM | 25 to 50 µM | a variation in growth inhibitory effect on the human leukemia cell lines depending on the cell lines | high growth inhibitory effects | – | – | – |
| O=C(N[C@@H](CCCCNC1CC1c1ccccc1)C(=O)NCc1ccc(Cl)cc1)c1ccc(-c2ccccc2)cc1 (stereo partly drawn) [Example 20, 2-[N-(4-Phenylbenzenecarbonyl)]amino-6-(trans-2-phenylcyclopropan-1-amino)-N-(4-chlorobenzyl)hexanamide Hydrochloride] | – | > 100 µM | > 100 µM | 4 µM | 1.4 µM | – | – | – | – | – | – | – | – | – | – | – | – | – |
| O=C(N[C@@H](CCCCNC1CC1c1ccccc1)C(=O)NCc1cccc(Cl)c1)c1ccc(-c2ccccc2)cc1 (stereo partly drawn) [Example 21, 2-[N-(4-Phenylbenzenecarbonyl)]amino-6-(trans-2-phenylcyclopropan-1-amino)-N-(3-chlorobenzyl)hexanamide Hydrochloride] | – | > 100 µM | > 100 µM | 4.3 µM | 2.7 µM | 5 to 10 µM | – | 10 to 20 µM | – | – | – | 10 to 20 µM | 10 to 20 µM | higher growth suppressing effects on the human leukemia cell lines than Comparative Example 2 | very high growth suppressing effects | < 1.3 µM | < 1.3 µM | not inhibited |
